Test results: US9045435B2, “Quinazoline compounds as sodium channel blockers” (Purdue Pharma, L.P., priority 2010, dated 2015)
Where two headings read alike, the source gives them in different places.

Columns and labels:
human Nav1.7 = human Nav1.7 (Homo sapiens, UniProt Q15858); test: FLIPR or FLIPR TETRA sodium dye assay with KCl and test article pre-incubation; assay type: cell-based
hNav1.7 = hNav1.7 (Homo sapiens, UniProt Q15858); test: Electrophysiology (EP) assay, whole-cell patch clamp; assay type: cell-based; settings: for Kd: resting block dissociation constant, read-out: EP Nav1.7 Kr
Protocol: The hNav1.7 expressing HEK-293 cells were plated on 35 mm culture dishes pre-coated with poly-D-lysine in standard DMEM culture media (Mediatech, Inc., Herndon, Va.) and incubated in a 5% CO2 incubator at 37° C. Cultured cells were used approximately 12-48 hours after plating.
On the day of experimentation, the 35 mm dish was placed on the stage of an inverted microscope equipped with a perfusion system that continuously perfuses the culture dish with fresh recording media. A gravity driven superfusion system was used to apply test solutions directly to the cell under evaluation. This system consists of an array of glass pipette glass connected to a motorized horizontal translator. The outlet of the shooter was positioned approximately 100 μm from the cell of interest.
Whole cell currents were recorded using the whole-cell patch clamp configuration using an Axopatch 200B amplifier (Axon Instruments, Foster City Calif.), 1322A A/D converter (Axon Instruments) and pClamp software (v. 8; Axon Instruments) and stored on a personal computer. Gigaseals were formed and the whole-cell configuration was established in voltage clamp mode, and membrane currents generated by hNav1.7 were recorded in gap-free mode. Borosilicate glass pipettes have resistance values between 1.5 and 2.0 MΩ when filled with pipette solution and series resistance (<5 MΩ) was compensated 75-80%. Signals were sampled at 50 kHz and low pass filtered at 3 kHz.
After establishing the whole-cell configuration in voltage clamp mode, voltage protocols were run to establish the 1) test potential, 2) holding potential, and 3) the conditioning potential for each cell.
After establishing the whole-cell configuration in voltage clamp mode, a standard I-V protocol was run to determine the potential at which the maximal current (Imax) is elicited. This potential was the test potential (Vt). To determine a conditioning potential at which 100% of channels were in the inactivated state, a standard steady-state inactivation (SSIN) protocol was run using a series of fifteen 100 ms-long depolarizing prepulses, incrementing in 10 mV steps, immediately followed by a 5 ms testing pulse, Vt, to Vmax. This protocol also permitted determination of the holding potential at which all channels are in the resting state.
For compounds causing significant retardation of recovery from inactivation, an estimate of the affinity for the inactivated state of the channel (Ki) was generated using the following protocol. From the negative, no residual inactivation, holding potential, the cell was depolarized to the conditioning voltage for 2-5 seconds, returned to the negative holding potential for 10-20 ms to relieve fast inactivation and then depolarized to the test potential for ˜15 ms. This voltage protocol was repeated every 10-15 seconds, first to establish a baseline in the absence of the test compound, then in the presence of the test compound.
After a stable baseline was established, the test compound was applied and block of the current elicited by the test pulse assessed. In some cases, multiple cumulative concentrations were applied to identify a concentration that blocked between 40-60% of this current. Washout of the compound was attempted by superfusing with control solution once steady-state block was observed. An estimate of the Ki was calculated as follows: Ki=[drug]*{FR/(1−FR)}, Eq. 1 where [drug] is the concentration of a drug, and FR=I(after drug)/I(control), Eq. 2 where I is the peak current amplitude. If multiple concentrations were used, Ki was determined from the fit of a logistic equation to FRs plotted against corresponding drug concentrations.
In the alternative, the voltage clamp protocol to examine hNav1.7 currents was as follows. […]

[1] = sodium dye assay with KCl, recombinant Nav1.7/HEK293 cells, read-out: FLIPR Nav1.7 IC50 (μM) ± SEM
[2] = affinity for the inactivated state of the channel, HEK-293 cells, spread on the next grid line, read-out: EP Nav1.7 Kj
[3] = HEK-293 cells, spread on the next grid line

Chain of hNav1.7 (Q15858 1-1977 isoform Q15858-3): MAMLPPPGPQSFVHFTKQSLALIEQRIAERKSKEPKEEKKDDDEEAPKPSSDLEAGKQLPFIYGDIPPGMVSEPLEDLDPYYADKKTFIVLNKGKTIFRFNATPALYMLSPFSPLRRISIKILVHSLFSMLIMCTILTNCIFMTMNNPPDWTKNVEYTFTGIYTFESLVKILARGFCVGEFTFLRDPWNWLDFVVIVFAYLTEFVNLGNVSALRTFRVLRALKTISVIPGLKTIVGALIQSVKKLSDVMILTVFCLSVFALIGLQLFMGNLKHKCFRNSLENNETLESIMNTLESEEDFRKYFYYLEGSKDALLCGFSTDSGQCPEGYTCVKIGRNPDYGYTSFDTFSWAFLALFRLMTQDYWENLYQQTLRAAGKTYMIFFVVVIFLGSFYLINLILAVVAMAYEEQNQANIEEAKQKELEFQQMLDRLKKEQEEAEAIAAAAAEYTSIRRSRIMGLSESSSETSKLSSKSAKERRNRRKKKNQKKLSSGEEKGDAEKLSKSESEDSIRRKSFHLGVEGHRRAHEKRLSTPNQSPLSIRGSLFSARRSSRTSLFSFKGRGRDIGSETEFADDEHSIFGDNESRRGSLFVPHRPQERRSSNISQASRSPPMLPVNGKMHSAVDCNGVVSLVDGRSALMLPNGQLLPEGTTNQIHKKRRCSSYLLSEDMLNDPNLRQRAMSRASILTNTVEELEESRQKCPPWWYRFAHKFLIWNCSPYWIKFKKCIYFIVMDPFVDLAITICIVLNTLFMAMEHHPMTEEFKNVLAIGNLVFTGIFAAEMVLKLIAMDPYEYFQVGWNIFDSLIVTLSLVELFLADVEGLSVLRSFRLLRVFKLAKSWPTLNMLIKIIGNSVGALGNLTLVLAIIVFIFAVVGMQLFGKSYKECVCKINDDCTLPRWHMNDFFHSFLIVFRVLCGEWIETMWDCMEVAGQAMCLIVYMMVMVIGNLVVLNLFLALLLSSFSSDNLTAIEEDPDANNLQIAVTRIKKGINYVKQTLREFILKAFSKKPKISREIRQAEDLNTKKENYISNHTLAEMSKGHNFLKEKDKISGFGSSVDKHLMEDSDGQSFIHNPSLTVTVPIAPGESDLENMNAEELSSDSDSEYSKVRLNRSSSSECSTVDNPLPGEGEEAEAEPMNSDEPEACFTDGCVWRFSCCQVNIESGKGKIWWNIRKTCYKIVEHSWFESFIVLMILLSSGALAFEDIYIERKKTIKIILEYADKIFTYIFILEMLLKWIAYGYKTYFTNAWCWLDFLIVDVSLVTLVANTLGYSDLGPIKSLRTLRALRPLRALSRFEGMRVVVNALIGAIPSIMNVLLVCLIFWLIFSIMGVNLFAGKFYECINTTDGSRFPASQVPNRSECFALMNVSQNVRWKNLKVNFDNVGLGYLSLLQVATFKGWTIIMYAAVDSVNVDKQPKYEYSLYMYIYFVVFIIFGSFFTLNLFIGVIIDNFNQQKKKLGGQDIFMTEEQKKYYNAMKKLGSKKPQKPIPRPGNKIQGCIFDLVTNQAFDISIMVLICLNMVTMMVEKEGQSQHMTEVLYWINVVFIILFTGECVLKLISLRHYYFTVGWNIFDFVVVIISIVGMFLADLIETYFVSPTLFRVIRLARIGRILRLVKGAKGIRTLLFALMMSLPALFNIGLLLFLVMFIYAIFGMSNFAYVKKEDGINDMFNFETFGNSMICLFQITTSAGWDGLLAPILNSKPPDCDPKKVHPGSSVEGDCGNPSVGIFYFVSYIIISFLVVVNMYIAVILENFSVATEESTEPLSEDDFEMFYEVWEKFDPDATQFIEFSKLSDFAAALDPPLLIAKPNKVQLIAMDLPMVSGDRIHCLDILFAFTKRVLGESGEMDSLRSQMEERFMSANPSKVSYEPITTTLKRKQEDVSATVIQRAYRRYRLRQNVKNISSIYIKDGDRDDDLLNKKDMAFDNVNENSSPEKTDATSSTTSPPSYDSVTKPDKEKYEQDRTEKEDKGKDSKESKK
Chain of human Nav1.7 (Q15858 1-1977 isoform Q15858-3): as above

Row | SMILES | IC50 (human Nav1.7; [1]) [µM] | other results
1 | NC(=O)CNc1nc(-c2ccc(Oc3ccc(F)cc3)cc2)c2ccccc2n1 [Compound 13x, 2-((4-(4-(4-fluorophenoxy)phenyl)quinazolin-2-yl)amino)acetamide] | > 20 | –
2 | CN(C)CCCNc1nc(-c2ccc(Oc3ccc(F)cc3)cc2)c2ccccc2n1 [Compound 13p, N^1-(4-(4-(4-fluorophenoxy)phenyl)quinazolin-2-yl)-N^3,N^3-dimethylpropane-1,3-diamine] | 0.205 | –
3 | OC[C@@H](O)CNc1nc(-c2ccc(Oc3ccc(F)cc3)cc2)c2ccccc2n1 [Compound 13r, (S)-3-((4-(4-(4-fluorophenoxy)phenyl)quinazolin-2-yl)amino)propane-1,2-diol] | 0.32 | –
4 | NN(CCO)c1nc(-c2ccc(Oc3ccc(F)cc3)cc2)c2ccccc2n1 [Compound 13w, 2-(1-(4-(4-(4-fluorophenoxy)phenyl)quinazolin-2-yl)hydrazinyl)ethanol] | 0.07 | –
5 | OC[C@@H](O)c1nc(-c2ccc(Oc3ccc(F)cc3)cc2)c2ccccc2n1 [Compound 10, (S)-1-(4-(4-(4-fluorophenoxy)phenyl)quinazolin-2-yl)ethane-1,2-diol] | 0.849 | –
6 | CCOC(=O)c1nc(-c2ccc(Oc3ccccc3)cc2)c2ccccc2n1 [Compound 3, ethyl 4-(4-phenoxyphenyl)quinazoline-2-carboxylate] | 1.57 | –
7 | CN1[C@@H]2CCC[C@H]1C[C@@H](Nc1nc(-c3ccc(Oc4ccc(F)cc4)cc3)c3ccccc3n1)C2 [Compound 13t, 4-(4-(4-fluorophenoxy)phenyl)-N-((1R,3S,5S)-9-methyl-9-azabicyclo[3.3.1]nonan-3-yl)quinazolin-2-amine] | – | Ki (hNav1.7): 20 nM; IC50 (human Nav1.7): 0.228 µM
8 | CN(N)c1nc(-c2ccc(Oc3ccc(F)cc3)cc2)c2ccccc2n1 [Compound 13g, 4-(4-(4-fluorophenoxy)phenyl)-2-(1-methylhydrazinyl)quinazoline] | 0.309 | –
9 | O=C1NCCN1CCNc1nc(-c2ccc(Oc3ccc(F)cc3)cc2)c2ccccc2n1 [Compound 13v, 1-(2-((4-(4-(4-fluorophenoxy)phenyl)quinazolin-2-yl)amino)ethyl)imidazolidin-2-one] | 0.204 | Ki (hNav1.7; [2]): 460 nM; Kd (hNav1.7; [3]): 23700 nM
10 | Nc1nc(-c2ccc(Oc3ccc(F)cc3)cc2)c2ccccc2n1 [Compound 13e, 4-(4-(4-fluorophenoxy)phenyl)quinazolin-2-amine] | 0.426 | –
11 | O=C1CN(c2nc(-c3ccc(Oc4ccc(F)cc4)cc3)c3ccccc3n2)CCN1 [Compound 13b, 4-(4-(4-(4-fluorophenoxy)phenyl)quinazolin-2-yl)piperazin-2-one] | 0.839 | –
12 | CCOc1nc(-c2ccc(Oc3ccc(F)cc3)cc2)c2ccccc2n1 [Compound 13y, 2-ethoxy-4-(4-(4-fluorophenoxy)phenyl)-quinazoline] | 0.995 | –
13 | OCCN1CCN(c2nc(-c3ccc(Oc4ccc(F)cc4)cc3)c3ccccc3n2)CC1 [Compound 13j, 2-(4-(4-(4-(4-fluorophenoxy)phenyl)quinazolin-2-yl)piperazin-1-yl)ethanol] | 0.104 | –
14 | Fc1ccc(Oc2ccc(-c3nc(Oc4ccccn4)nc4ccccc34)cc2)cc1 [Compound 13z, 4-(4-(4-fluorophenoxy)phenyl)-2-(pyridin-2-yloxy)quinazoline] | 1.91 | –
15 | OC[C@H](O)CNc1nc(-c2ccc(Oc3ccc(F)cc3)cc2)c2ccccc2n1 [Compound 13q, (R)-3-((4-(4-(4-fluorophenoxy)phenyl)quinazolin-2-yl)amino)propane-1,2-diol] | 0.071 | Ki (hNav1.7; [2]): 220 nM
16 | COC(=O)[C@@H]1C[C@@H](O)CN1c1nc(-c2ccc(Oc3ccc(F)cc3)cc2)c2ccccc2n1 [Compound 13m, (2S,4R)-methyl 1-(4-(4-(4-fluorophenoxy)phenyl)quinazolin-2-yl)-4-hydroxypyrrolidine-2-carboxylate] | 0.833 | –
17 | NC(=O)C[C@H](Nc1nc(-c2ccc(Oc3ccc(F)cc3)cc2)c2ccccc2n1)C(N)=O [Compound 13s, (S)-2-((4-(4-(4-fluorophenoxy)phenyl)quinazolin-2-yl)amino)succinamide] | 0.313 | –
18 | Fc1ccc(Oc2ccc(-c3nc(NCCCn4ccnc4)nc4ccccc34)cc2)cc1 [Compound 13o, N-(3-(1H-imidazol-1-yl)propyl)-4-(4-(4-fluorophenoxy)phenyl)quinazolin-2-amine] | 0.325 | –
19 | OCC(CO)Nc1nc(-c2ccc(Oc3ccc(F)cc3)cc2)c2ccccc2n1 [Compound 13u, 2-((4-(4-(4-fluorophenoxy)phenyl)quinazolin-2-yl)amino)propane-1,3-diol] | 0.208 | Ki (hNav1.7; [2]): 640 nM; Kd (hNav1.7; [3]): 55300 nM
20 | CN(C)CCNc1nc(-c2ccc(Oc3ccc(F)cc3)cc2)c2ccccc2n1 [Compound 13d, N^1-(4-(4-(4-fluorophenoxy)phenyl)quinazolin-2-yl)-N^2,N^2-dimethylethane-1,2-diamine] | 0.317 | –
21 | CCN1CCN(c2nc(-c3ccc(Oc4ccc(F)cc4)cc3)c3ccccc3n2)CC1 [Compound 13h, 2-(4-ethylpiperazin-1-yl)-4-(4-(4-fluorophenoxy)phenyl)quinazoline] | 0.236 | –
22 | NC(=O)c1nc(-c2ccc(Oc3ccccc3)cc2)c2ccccc2n1 [Compound 5, 4-(4-phenoxyphenyl)quinazoline-2-carboxamide] | 0.097 | Ki (hNav1.7; [2]): 120 nM
23 | NC(=O)[C@H](CO)Nc1nc(-c2ccc(Oc3ccc(F)cc3)cc2)c2ccccc2n1 [Compound 13a, (S)-2-{4-[4-(4-fluorophenoxy)phenyl]quinazolin-2-ylamino}-3-hydroxy-propionamide] | 0.836 | Ki (hNav1.7; [2]): 740 nM
24 | OCCNc1nc(-c2ccc(Oc3ccc(F)cc3)cc2)c2ccccc2n1 [Compound 13c, 2-((4-(4-(4-fluorophenoxy)phenyl)quinazolin-2-yl)amino)ethanol] | 0.369 | –
25 | CN1CCN(c2nc(-c3ccc(Oc4ccc(F)cc4)cc3)c3ccccc3n2)CC1 [Compound 13k, 4-(4-(4-fluorophenoxy)phenyl)-2-(4-methylpiperazin-1-yl)quinazoline] | 0.418 | Ki (hNav1.7; [2]): 70 nM; Kd (hNav1.7; [3]): 2090 nM
26 | COC(=O)[C@@H]1CCCN1c1nc(-c2ccc(Oc3ccc(F)cc3)cc2)c2ccccc2n1 [Compound 13f, (S)-methyl 1-(4-(4-(4-fluorophenoxy)phenyl)-quinazolin-2-yl)pyrrolidine-2-carboxylate] | 0.642 | Ki (hNav1.7; [2]): 620 nM; Kd (hNav1.7; [3]): 23900 nM
27 | CNc1nc(-c2ccc(Oc3ccc(F)cc3)cc2)c2ccccc2n1 [Compound 13n, 4-(4-(4-fluorophenoxy)phenyl)-N-methylquinazolin-2-amine] | 0.294 | –
28 | NC(=O)[C@@H]1CCCN1c1nc(-c2ccc(Oc3ccc(F)cc3)cc2)c2ccccc2n1 [Compound 13l, (S)-1-(4-(4-(4-fluorophenoxy)phenyl)quinazolin-2-yl)pyrrolidine-2-carboxamide] | 0.105 | Ki (hNav1.7; [2]): 190 nM
29 | O=C(O)c1nc(-c2ccc(Oc3ccccc3)cc2)c2ccccc2n1 [Compound 4, 4-(4-phenoxyphenyl)quinazoline-2-carboxylic acid] | > 20 | –
30 | OC1CCN(c2nc(-c3ccc(Oc4ccc(F)cc4)cc3)c3ccccc3n2)CC1 [Compound 13i, 1-(4-(4-(4-fluorophenoxy)phenyl)quinazolin-2-yl)piperidin-4-ol] | 0.428 | –
